BindingDB's records for doi:10.1016/j.bioorg.2016.11.003 (Linyi People's Hospital, 2017)

The compounds below were run against T1, Forkhead box protein M1 [235-327] (Human, UniProt Q08050) (assay: Fluorescence-based Affinity Assay).
T1 construct: 235-327
T1 sequence (Q08050 whole entry): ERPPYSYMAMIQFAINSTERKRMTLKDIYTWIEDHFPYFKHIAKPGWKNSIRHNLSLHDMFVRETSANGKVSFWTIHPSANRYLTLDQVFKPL
Method: The fluorescence emission spectra of tryptophan residues were used to monitor the changes in local chemical environment of protein upon ligand binding [Zhu et al., Bioorg. Chem., 68:259-265; Tyler et al., Biochemistry, 49:951-957]. The protein concentration was kept at a constant. Changes in fluorescence were measured upon titration of tested compound to protein solution. Fluorescence was measured by a PE fluorescence spectrophotometer.

Row | SMILES | Kd [µM]
1 | CC1=C(C(=O)OC(C)C)C(c2ccc([N+](=O)[O-])cc2)NC(=S)N1 (stereo unspecified) [CID 2748293] | 17
2 | CCC[C@H]1C(=O)N[C@]2(C(=O)O[C@@H]2[C@H]2C=CCCC2)[C@@]1(C)O [CID 50943806] | 230
3 | Cc1cccc2c(/C=C/C(=O)O)cc(C(C)C)c(O)c12 [CID 53708511] | 56

The remaining lines, values ahead:

Row | Kd [µM] | SMILES
4 | 26 | COc1ccccc1C(=O)C(CCC(=O)O)c1ccccc1OC (stereo unspecified) [CID 2748371]
5 | 120 | O=c1[nH]nc(-c2ccccc2)c(=S)n1-c1ccc(F)c(Cl)c1 [CID 2751638]
6 | 3.8 | N=c1sc(C(=O)c2cccs2)nn1-c1ccccc1 [CID 2753793]
